Laboratory results published in patent US20060252707A1, “Pharmaceutical composition for the treatment and/or the prevention of atherosclerosis from infectious origin” (UNIVERSITE DE LIEGE, priority 2003, published 2006).

Legend:
Type in all cases: cell-based, human
TNFα = TNFα production (ELISA, culture supernatant) by THP-1 cells pre-incubated with Chlamydia pneumoniae; details: 10^−9 M to 10^−5 M; THP-1 pre-incubated (19h) with Chlamydia
Description: (§1) By using this model, one may verify that the monocyte incubation with C. pneumoniae during 19 hours, enhances the production of TNFα(FIG. 6, part 1) and IL-8 ([…]), as measured by immunological methods (ELISA type) in the culture supernatant.

[1] = system: THP-1 cells conditioned with Escherichia Coli endotoxin (LPS); experiment: Oxidant activity (ethylene production) of THP-1 cells conditioned with Escherichia Coli endotoxin (LPS), then stimulated by PMA; details: for Ethylene: FIG. 9 part 2, % of THP-1 + LPS, PMA 10^−7 M
Description: FIG. 9 represents the effects of hydrocortisone (HCT) on the oxidant activity of THP-1 cells conditioned either with Chlamydia pneumoniae (part 1; n=13) or with Escherichia Coli endotoxin (LPS) (part 2), and then stimuled by PMA 10^−7 M. Ethylene is expressed in % of the value measured for THP-1 cells incubated with Chlamydia (column 2 for part 1), or incubated with LPS (column 1 for par 2).
(§2) After incubation with C. pneumoniae, the cells are washed and detached from the wells; they are put in sterile vials and an oxidable substrate, α-keto-methyl butyric acid (KMB) at 10^−3 M, is added. The vial is sealed and the following reagents are added by needle puncture. through the septum: 200 U horseradish peroxidase (HRP) and 10^−7 M phorbol myristate acetate (PMA).
(§3) PMA is a monocyte activator, enhancing the superoxide anion production by these cells. Superoxide anion dismutates into hydrogen peroxide (H2O2), which is used by HRP to form more oxidant species, able to oxidize KMB, releasing ethylene. After 3 hours of incubation at 37° C, ethylene, which has accumulated in the gaseous phase of the sealed vial is measured by gas liquid chromatography, on a Porapak T column (TM) equipped with flame ionisation detector. These assays can be made with the prior addition of a reagent able to inhibit or to stimulate the monocytes, the reagent being added, either at pre-incubation (at the same time as the Chlamydia EB), or at the moment of PMA activation.
Two glucocorticoids were tested: hydrocortisone and methylprednisolone. […] On the contrary, HCT is an inhibitor on the oxidation rate when the cells are conditioned with endotoxins (LPS) of Escherichia coli (FIG. 9 part 2, columns 2, 3 and 4) (Ethylene values are expressed in % of the control cells=THP-1 cells stimulated by PMA 10^−7 M after pre-incubation with Chlamydia (part 1, column 2) or LPS ([…]

IL-8 = IL-8 production (ELISA, culture supernatant) by THP-1 cells pre-incubated with Chlamydia pneumoniae; details: 10^−9 M to 10^−5 M; THP-1 pre-incubated (19h) with Chlamydia
Description: as §1

[2] = system: nuclear transcription factor kappaB (NF-κB); experiment: Activation of NF-κB (binding to DNA) by electrophoretic mobility shift assay in THP-1 cells pre-incubated with Chlamydia; details: for NF-κB relative value (%): THP-1 + Chlamydia, % of THP-1 without preincubation with C pneumoniae (FIG. 7)
Description: FIG. 7 represents the effects of pre-incubation with Chlamydia on the activity of the nuclear transcription factor kappaB (NF-kB) (column 2). NF-kB is expressed in % of column 1 (THP-1 cells without preincubation with C pneumoniae)
The activation of NF-κB was measured by the technique of <<electrophoretic mobility shift assay>> (EMSA) (Schoonbroodt et al., 2000, J Immunol. 164: 4292-4300; Nys et al., 2003, Nitric Oxide 9: 33-43) (FIG. 7). The activation of NF-κB is expressed in % of control cells (cells which have not been pre-incubated with Chlamydia) (column 1). The incubation of monocytes with C. pneumoniae activates the NF-κB binding to DNA (FIG. 7, column 2).

p22^phox = experiment: Gene expression (PCR) of NADPH-oxidase subunit p22phox in THP-1 cells incubated with Chlamydia; details: FIG. 16; 10^−4 to 10^−6 M
Description: FIG. 16 represents the genetic expression of one of the subunits of NADPH-oxidase, the p22^phox, and the effects of glucocorticoids, hydrocortisone (HCT) and methylprednisolone (MPL) (data are expressed as relative values by comparison with a reference gene).
By the PCR (<<polymerase chain reaction>>) method, it was observed that the incubation of monocytes with C. pneumoniae increased the expression of the genes (FIG. 8, column 2 compared to column 1) coding for interleukines 1β (IL-1β) (FIG. 8, part 1), 6 (IL-6) (FIG. 8, part 2) and 8 (IL-8) (FIG. 8, part 3), coding for inducible cyclo-oxygenase (COX-2) (FIG. 8, part 4) and coding for one of the subunits of NADPH-oxidase, the p22 protein (p22^phox) (FIG. 8, part 5) (results are presented as relative values by comparison with a reference gene).

[3] = system: THP-1 cells conditioned with Chlamydia pneumoniae; experiment: Oxidant activity (ethylene production from KMB, gas liquid chromatography) of THP-1 cells conditioned with Chlamydia pneumoniae, then stimulated by PMA; details: for Ethylene: % of THP-1 + Chlamydia
Description: This model has been described in details in Mouithys Mickalad et al. (Biochem Biophys Res Comm 2001, 287: 781-788). Treatment of the Cells with Chlamydia pneumoniae:
The monocytes (in multiwell plates, 2×10^6 cells/well) are conditioned by a pre-incubation of 19 hours with elementary bodies of Chlamydia pneumoniae (at a dose equivalent to a mean endotoxin concentration of 3.3 pg). The elementary bodies are obtained by Chlamydia culture in MacCoy cells (American Type Culture Collection, Rockville, USA).
as §2, §3

THP-1 cell line = experiment: Model of foam cell formation from THP-1 monocytes (Chlamydia pneumoniae, then LDL or liposomes, Oil Red O); details: LDL
Description: A model of foam cell formation from monocytes (THP-1 cell line) was developed. The cells are incubated for 19 hours with Chlamydia pneumoniae. This incubation is followed by the addition of human LDL or liposomes, and another incubation period of 48 hours. At the end of this second period of incubation, the cells are fixed and stained with oil Red O (Sigma, Belgium) (Smirnova et al., 2004, Am J Physiol Heart Circ Physiol. March 11 (Epub ahead of print) to highlight the foam cells. When drugs are used in this model, they are added at the same time as the LDL or liposomes. LDL are prepared from human blood drawn on EDTA. They are isolated by sequential flotation centrifugation with increased concentrations of KBr. After their isolation, LDL are dialysed, sterilised by filtration and their purity is confirmed by electrophoresis. Liposomes are lipid vesicles prepared by extrusion with cholesterol esters and phospholipids, mimicking lipoproteins.

SMILES: C[C@]12CCC(=O)C=C1CC[C@@H]1[C@@H]2[C@@H](O)C[C@@]2(C)[C@H]1CC[C@]2(O)C(=O)CO [HCT, hydrocortisone]
- effect on production of TNFα (TNFα): dose-dependent inhibiting effect
- Ethylene ([1]; 10^−4 M): 19%
- Ethylene ([1]; 10^−5 M): 50%
- Ethylene ([1]; 10^−6 M): 57%
- effect on oxidation rate ([1]; cells conditioned with endotoxins (LPS) of Escherichia coli, 10^−4 to 10^−6 M): inhibitor
- effect on production of IL-8 (IL-8): dose-dependent inhibiting effect
- NF-κB relative value (%) ([2]; 10^−5 M): 396%
- NF-κB relative value (%) ([2]; 10^−6 M): 480%
- effect on the activation of NF-κB ([2]; at 10^−5 and 10^−6 M): without significant effect
- activity of NF-κB ([2]; at 10^−6 M): slightly stimulated
- effect on gene expression of p22^phox (p22^phox): inhibitors
- Ethylene ([3]; FIG. 9 part 1, 10^−4 M, PMA 10^−7 M): 108%
- Ethylene ([3]; FIG. 9 part 1, 10^−5 M, PMA 10^−7 M): 119%
- Ethylene ([3]; FIG. 9 part 1, 10^−6 M, PMA 10^−7 M): 139%
- Ethylene ([3]; FIG. 19, drug alone 10^−4 M, pre-incubation with Chlamydia): 84.0%
- Ethylene ([3]; FIG. 19, drug alone 10^−5 M, pre-incubation with Chlamydia): 116.0%
- Ethylene ([3]; FIG. 20, drug alone 10^−4 M, pre-incubation with Chlamydia): 98.0%
- Ethylene ([3]; FIG. 20, drug alone 10^−5 M, pre-incubation with Chlamydia): 85.0%
- Ethylene ([3]; FIG. 21, drug alone 10^−4 M, pre-incubation with Chlamydia): 104.0%
- Ethylene ([3]; FIG. 21, drug alone 10^−5 M, pre-incubation with Chlamydia): 72.0%
- Ethylene ([3]; FIG. 22, drug alone 10^−4 M, pre-incubation with Chlamydia): 118.0%
- Ethylene ([3]; FIG. 22, drug alone 10^−5 M, pre-incubation with Chlamydia): 68.1%
- effect on oxidant activity / oxidation rate ([3]; drug added at cell conditioning with Chlamydia (pre-incubation 19 hours), then PMA 10^−7 M): either does not modify the oxidant capacity, or even increases the oxidation rate
- effect on transformation into foam cells (THP-1 cell line; 10^−5 M): favouring effect
- effect on transformation into foam cells (THP-1 cell line; at 10^−5 and 10^−6 M): does not inhibit the transformation into foam cells
